Results from patent US10239873B2, “7-azaindole or 4,7-diazaindole derivatives as IKKϵ epsilon and TBK1 inhibitor and pharmaceutical composition comprising same” (GREEN CROSS CORPORATION, priority 2015, dated 2019).

Legend:
TBK1 = biological target: T1, TBK1 (Homo sapiens, UniProt Q9UHD2); assay: ADP-Glo Kinase Assay, inhibition activity on TBK1; type: biochemical
T1 construct: purchased Promega (Invitrogen is also named in the same bracket) V4158; PR8031B; V3991 (not assigned to the two kinases)
T1 sequence (Q9UHD2 1-729): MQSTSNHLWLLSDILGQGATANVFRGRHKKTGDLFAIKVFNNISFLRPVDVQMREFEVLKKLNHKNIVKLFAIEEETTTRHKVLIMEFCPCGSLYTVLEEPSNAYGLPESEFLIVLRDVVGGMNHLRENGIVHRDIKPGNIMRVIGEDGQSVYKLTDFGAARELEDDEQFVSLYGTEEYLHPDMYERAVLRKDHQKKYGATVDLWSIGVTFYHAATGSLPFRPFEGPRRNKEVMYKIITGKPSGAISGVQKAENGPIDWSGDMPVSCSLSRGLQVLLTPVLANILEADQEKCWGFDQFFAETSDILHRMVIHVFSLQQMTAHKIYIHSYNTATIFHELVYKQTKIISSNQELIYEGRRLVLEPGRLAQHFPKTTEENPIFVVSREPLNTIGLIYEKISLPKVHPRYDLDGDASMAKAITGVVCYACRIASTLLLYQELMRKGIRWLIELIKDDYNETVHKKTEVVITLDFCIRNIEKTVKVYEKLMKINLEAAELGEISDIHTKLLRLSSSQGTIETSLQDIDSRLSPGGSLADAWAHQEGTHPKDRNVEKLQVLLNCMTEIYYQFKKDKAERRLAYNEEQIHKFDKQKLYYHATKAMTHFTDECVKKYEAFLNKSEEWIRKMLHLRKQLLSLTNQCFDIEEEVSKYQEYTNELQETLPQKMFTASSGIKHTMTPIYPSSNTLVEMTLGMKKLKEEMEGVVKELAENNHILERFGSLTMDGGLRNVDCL
How it was run: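 Kinase activity measured with the ADP-Glo luminescent ADP-detection kit per manufacturer's protocol, using IKKε or TBK1 kinase enzyme systems. Reaction buffer: 40 mM Tris (pH 7.5), 20 mM MgCl2, 0.1 mg/mL BSA; luminescence read on a luminometer.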

IKKε = biological target: T2, IKKε (Homo sapiens, UniProt Q14164); assay: ADP-Glo Kinase Assay, inhibition activity on IKKε; type: biochemical
T2 construct: purchased Promega and/or Invitrogen V4158; PR8031B; V3991 (not assigned to the two kinases)
T2 sequence (Q14164 1-716): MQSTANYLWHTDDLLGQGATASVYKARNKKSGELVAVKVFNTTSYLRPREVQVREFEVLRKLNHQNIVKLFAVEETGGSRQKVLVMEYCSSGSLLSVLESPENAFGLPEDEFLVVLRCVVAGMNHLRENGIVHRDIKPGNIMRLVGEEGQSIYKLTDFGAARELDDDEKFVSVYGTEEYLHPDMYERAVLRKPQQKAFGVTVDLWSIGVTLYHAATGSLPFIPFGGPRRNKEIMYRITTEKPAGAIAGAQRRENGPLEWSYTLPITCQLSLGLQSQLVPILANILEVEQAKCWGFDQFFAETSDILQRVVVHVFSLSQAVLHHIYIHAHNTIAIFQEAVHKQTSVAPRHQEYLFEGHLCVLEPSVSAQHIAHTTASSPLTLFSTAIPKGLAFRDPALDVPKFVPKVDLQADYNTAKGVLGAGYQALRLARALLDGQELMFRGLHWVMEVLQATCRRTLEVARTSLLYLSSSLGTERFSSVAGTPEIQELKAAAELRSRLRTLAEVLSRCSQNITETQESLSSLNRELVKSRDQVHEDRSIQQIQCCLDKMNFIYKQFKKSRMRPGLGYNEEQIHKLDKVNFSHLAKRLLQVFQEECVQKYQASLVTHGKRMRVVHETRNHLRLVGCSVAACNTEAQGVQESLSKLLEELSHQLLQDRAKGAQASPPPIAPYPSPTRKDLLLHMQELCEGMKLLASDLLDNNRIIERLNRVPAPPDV
Protocol: Inhibition activities on IKKϵ and TBK1 were evaluated using the compounds of Examples 1 to 250.
The inhibition activities on IKKϵ and TBK1 were measured by a luminometer, IKKϵ/TBK1 Kinase Enzyme System (Promega, Ca# V4158; Invitrogen, PR8031B, Promega, Ca# V3991) and ADP-Glo Kinase Assay using ADP-Glo™ Kinase Analysis Kit (Promega, Ca# V9101) and a kinase reaction buffer [40 mM Tris(pH 7.5), 20 mM MgCl2, 0.1 mg/mL BSA] in accordance with the manufacturer's protocol.

IC50 (TBK1) [µM]	Structure (SMILES)	IC50 (IKKε) [µM]
0.0027	CC1C=C(c2c[nH]c3ncc(-c4ccc(CN5CCN(C)CC5)s4)cc23)CCN1C(=O)NC1CCCC1 (racemic) [Example 107, N-cyclopentyl-2-methyl-4-(5-(5-((4-methylpiperazin-1-yl)methyl)thiophen-2-yl)-1H-pyrrolo[2,3-b]pyridin-3-yl)-5,6-dihydropyridine-1(2H)-carboxamide]	0.0032
6.86	CN1CC=C(c2c[nH]c3ncc(-c4ccc(CN5CCOCC5)s4)cc23)CC1 [Example 1, 4-((5-(3-(1-Methyl-1,2,3,6-tetrahydropyridin-4-yl)-1H-pyrrolo[2,3-b]pyridin-5-yl)thiophen-2-yl)methyl)morpholine]	> 10
0.14	CC(=O)N1CC=C(c2c[nH]c3ncc(-c4ccc(CN5CCOCC5)s4)cc23)CC1 [Example 8, 1-(4-(5-(5-(Morpholinomethyl)thiophen-2-yl)-1H-pyrrolo[2,3-b]pyridin-3-yl)-3,6-dihydropyridin-1(2H)-yl)ethan-1-one]	0.66
0.33	CCCCC(=O)N1CC=C(c2c[nH]c3ncc(-c4ccc(CN5CCOCC5)s4)cc23)CC1 [Example 9, 1-(4-(5-(5-(Morpholinomethyl)thiophen-2-yl)-1H-pyrrolo[2,3-b]pyridin-3-yl)-3,6-dihydropyridin-1(2H)-yl)pentan-1-one]	0.51
–	CC(C)NC(=O)N1CC=C(c2c[nH]c3ncc(-c4ccc(CN5CCOCC5)o4)cc23)CC1 [Example 36, N-isopropyl-4-(5-(5-(morpholinomethyl)furan-2-yl)-1H-pyrrolo[2,3-b]pyridin-3-yl)-5,6-dihydropyridine-1(2H)-carboxamide]	0.0093
0.47	CC(C)(C)OC(=O)N1CC=C(c2c[nH]c3ncc(-c4ccc(CN5CCOCC5)s4)nc23)CC1 [Example 234, tert-butyl 4-(2-(5-(morpholinomethyl)thiophen-2-yl)-5H-pyrrolo[2,3-b]pyrazin-7-yl)-5,6-dihydropyridine-1(2H)-carboxylate]	–
> 10	COc1ccc(-c2cnc3[nH]cc(C4CCCN(C(=O)OC(C)(C)C)C4)c3c2)cc1OC (stereo not drawn) [Example 236, tert-butyl 3-(5-(3,4-dimethoxyphenyl)-1H-pyrrolo[2,3-b]pyridin-3-yl)piperidine-1-carboxylate]	–
0.3	COc1ccc(-c2cnc3[nH]cc(C4=CCN(C(=O)OC(C)(C)C)CC4)c3c2)cc1OC [Example 239, tert-butyl 4-(5-(3,4-dimethoxyphenyl)-1H-pyrrolo[2,3-b]pyridin-3-yl)-5,6-dihydropyridine-1(2H)-carboxylate]	–
0.2	CC(=O)Nc1cccc(-c2cnc3[nH]cc(C4=CCN(C(=O)OC(C)(C)C)CC4)c3c2)c1 [Example 240, tert-butyl 4-(5-(3-acetamidophenyl)-1H-pyrrolo[2,3-b]pyridin-3-yl)-5,6-dihydropyridine-1(2H)-carboxylate]	–
0.17	CC(=O)Nc1ccc(-c2cnc3[nH]cc(C4=CCN(C(=O)OC(C)(C)C)CC4)c3c2)cc1 [Example 241, tert-butyl 4-(5-(4-acetamidophenyl)-1H-pyrrolo[2,3-b]pyridin-3-yl)-5,6-dihydropyridine-1(2H)-carboxylate]	–
1.3	CCCOc1cccc(-c2cnc3[nH]cc(C4=CCN(C(=O)OC(C)(C)C)CC4)c3c2)c1 [Example 242, tert-butyl 4-(5-(3-propoxyphenyl)-1H-pyrrolo[2,3-b]pyridin-3-yl)-5,6-dihydropyridine-1(2H)-carboxylate]	–
1.7	CCCOc1ccc(-c2cnc3[nH]cc(C4=CCN(C(=O)OC(C)(C)C)CC4)c3c2)cc1 [Example 243, tert-butyl 4-(5-(4-propoxyphenyl)-1H-pyrrolo[2,3-b]pyridin-3-yl)-5,6-dihydropyridine-1(2H)-carboxylate]	–
1.8	COc1ccccc1-c1cnc2[nH]cc(C3=CCN(C(=O)OC(C)(C)C)CC3)c2c1 [Example 244, tert-butyl 4-(5-(2-methoxyphenyl)-1H-pyrrolo[2,3-b]pyridin-3-yl)-5,6-dihydropyridine-1(2H)-carboxylate]	–
8.8	COc1ccc(-c2cnc3[nH]cc(C4=CN(C(=O)OC(C)(C)C)CCC4)c3c2)cc1OC [Example 245, tert-butyl 5-(5-(3,4-dimethoxyphenyl)-1H-pyrrolo[2,3-b]pyridin-3-yl)-3,4-dihydropyridine-1(2H)-carboxylate]	–
4.1	COc1ccc(-c2cnc3[nH]cc(-c4ccc(CC(=O)NC5CCCC5)cc4)c3c2)cc1OC [Example 246, N-cyclopentyl-2-(4-(5-(3,4-dimethoxyphenyl)-1H-pyrrolo[2,3-b]pyridin-3-yl)phenyl)acetamide 2,2,2-trifluoroacetate]	–
1.3	O=C(O)Cc1ccc(-c2c[nH]c3ncc(-c4ccc(CN5CCOCC5)s4)cc23)cc1 [Example 247, 2-(4-(5-(5-(morpholinomethyl)thiophen-2-yl)-1H-pyrrolo[2,3-b]pyridin-3-yl)phenyl)acetic acid]	–
2.1	O=C(Cc1ccc(-c2c[nH]c3ncc(-c4ccc(CN5CCOCC5)s4)cc23)cc1)NC1CCCC1 [Example 248, N-cyclopentyl-2-(4-(5-(5-(morpholinomethyl)thiophen-2-yl)-1H-pyrrolo[2,3-b]pyridin-3-yl)phenyl)acetamide 2,2,2-trifluoroacetate]	–

Structure (SMILES)	IC50 (TBK1) [µM]	IC50 (IKKε) [µM]
COc1ccc(-c2cnc3[nH]cc(C4=CCN(C)CC4)c3c2)cc1OC [Example 2, 5-(3,4-Dimethoxyphenyl)-3-(1-methyl-1,2,3,6-tetrahydropyridin-4-yl)-1H-pyrrolo[2,3-b]pyridine]	9.04	> 10
CCN1CC=C(c2c[nH]c3ncc(-c4ccc(OC)c(OC)c4)cc23)CC1 [Example 3, 5-(3,4-Dimethoxyphenyl)-3-(1-ethyl-1,2,3,6-tetrahydropyridin-4-yl)-1H-pyrrolo[2,3-b]pyridine]	5.93	> 10
CCCN1CC=C(c2c[nH]c3ncc(-c4ccc(OC)c(OC)c4)cc23)CC1 [Example 4, 5-(3,4-Dimethoxyphenyl)-3-(1-propyl-1,2,3,6-tetrahydropyridin-4-yl)-1H-pyrrolo[2,3-b]pyridine]	3.23	5.14
COc1ccc(-c2cnc3[nH]cc(C4=CCN(CC(C)C)CC4)c3c2)cc1OC [Example 5, 5-(3,4-Dimethoxyphenyl)-3-(1-isobutyl-1,2,3,6-tetrahydropyridin-4-yl)-1H-pyrrolo[2,3-b]pyridine]	1.56	2.75
CCN1CC=C(c2c[nH]c3ncc(-c4ccc(CN5CCOCC5)s4)cc23)CC1 [Example 6, 4-((5-(3-(1-Ethyl-1,2,3,6-tetrahydropyridin-4-yl)-1H-pyrrolo[2,3-b]pyridin-5-yl)thiophen-2-yl)methyl)morpholine]	4.08	8.9
CCCN1CC=C(c2c[nH]c3ncc(-c4ccc(CN5CCOCC5)s4)cc23)CC1 [Example 7, 4-((5-(3-(1-Propyl-1,2,3,6-tetrahydropyridin-4-yl)-1H-pyrrolo[2,3-b]pyridin-5-yl)thiophen-2-yl)methyl)morpholine]	1.91	4.25
